{"source": "PubChem BioAssay AID256", "about": "(DTP/NCI, 2004)", "system": "CD2F1 mice, L1210 leukemia ip, survival T/C", "experiment": "NCI In Vivo Anticancer Drug Screen. Data for tumor model L1210 Leukemia (intraperitoneal) in CD2F1 (CDF1) mice", "details": "higher = longer survival", "in_short": "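In this screen, transplantable tumors were grown in mice given either the compound or its vehicle. Results were expressed as the treated measurement relative to the control measurement.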", "key": {"[1]": {"details": "endpoint: mean survival time, dose: 25.0 mg/kg/injection, schedule: Q01DX009 (ip), vehicle: saline with Tween-80"}, "[2]": {"details": "endpoint: mean survival time, dose: 50.0 mg/kg/injection, schedule: Q01DX009 (ip), vehicle: saline with Tween-80"}, "[3]": {"details": "endpoint: mean survival time, dose: 100.0 mg/kg/injection, schedule: Q01DX009 (ip), vehicle: saline with Tween-80"}, "[4]": {"details": "endpoint: mean survival time, dose: 100.0 mg/kg/injection, schedule: Q04DX003 (ip), vehicle: saline with Tween-80"}, "[5]": {"details": "endpoint: mean survival time, dose: 200.0 mg/kg/injection, schedule: Q04DX003 (ip), vehicle: saline with Tween-80"}, "[6]": {"details": "endpoint: mean survival time, dose: 200.0 mg/kg/injection, schedule: Q01DX009 (ip), vehicle: saline with Tween-80"}}, "note": "Where “and” joins values, the source holds several entries; their conditions need not be identical. Identical values can stand only once. Inconclusive results and toxic doses are left out."}
{"smiles": "CC1(C)C2CC=C(CCOC(=S)S)C1C2.[Ni]", "note": "(stereo not drawn)", "values": [{"measurement": "T/C", "setting": "[1]", "value": "96 % of control"}, {"measurement": "T/C", "setting": "[2]", "value": "90 % of control"}, {"measurement": "T/C", "setting": "[3]", "value": "96 % of control"}, {"measurement": "T/C", "setting": "[4]", "value": "91 % of control"}, {"measurement": "T/C", "setting": "[5]", "value": "93 % of control"}]}
{"smiles": "CC(=O)C(C(C)=O)C1=C(Cl)C(=O)c2ccccc2C1=O", "values": [{"measurement": "T/C", "setting": "endpoint: mean survival time, dose: 75.0 mg/kg/injection, schedule: Q01DX001 (ip), vehicle: other", "value": "94 % of control"}, {"measurement": "T/C", "setting": "endpoint: mean survival time, dose: 150.0 mg/kg/injection, schedule: Q01DX001 (ip), vehicle: other", "value": "100 % of control"}, {"measurement": "T/C", "setting": "endpoint: mean survival time, dose: 300.0 mg/kg/injection, schedule: Q01DX001 (ip), vehicle: other", "value": "97 % of control"}]}
{"smiles": "CCN1/C(=C/C(C)=C/c2sc3ccccc3[n+]2CC)Sc2ccccc21", "values": [{"measurement": "T/C", "setting": "endpoint: mean survival time, dose: 5.0 mg/kg/injection, schedule: Q01DX001 (ip), vehicle: other", "value": "96 % of control"}, {"measurement": "T/C", "setting": "endpoint: mean survival time, dose: 200.0 micrograms/kg/injection, schedule: Q04DX003 (ip), vehicle: Klucel (hydroxypropylcellulose) (HPC)", "value": "104 % of control"}, {"measurement": "T/C", "setting": "endpoint: mean survival time, dose: 400.0 micrograms/kg/injection, schedule: Q04DX003 (ip), vehicle: Klucel (hydroxypropylcellulose) (HPC)", "value": "104 % of control"}]}
{"smiles": "NC1(C(=O)O)CCCC1.[Pb]", "values": [{"measurement": "T/C", "setting": "endpoint: mean survival time, dose: 100.0 mg/kg/injection, schedule: Q01DX001 (ip), vehicle: saline", "value": "90 % of control"}]}
{"smiles": "CNC1=C(C)C(=O)C2=C(C1=O)C(COC(N)=O)C1(OC)C3NC3CN21", "note": "(stereo not drawn)", "values": [{"measurement": "T/C", "setting": "endpoint: mean survival time, dose: 1.5 mg/kg/injection, schedule: Q01DX001 (ip), vehicle: water", "value": "102 % of control"}, {"measurement": "T/C", "setting": "endpoint: mean survival time, dose: 3.0 mg/kg/injection, schedule: Q01DX001 (ip), vehicle: water", "value": "100 % of control"}, {"measurement": "T/C", "setting": "endpoint: mean survival time, dose: 6.0 mg/kg/injection, schedule: Q01DX001 (ip), vehicle: water", "value": "108 % of control"}, {"measurement": "T/C", "setting": "endpoint: mean survival time, dose: 12.0 mg/kg/injection, schedule: Q01DX001 (ip), vehicle: water", "value": "118 % of control"}, {"measurement": "T/C", "setting": "endpoint: mean survival time, dose: 24.0 mg/kg/injection, schedule: Q01DX001 (ip), vehicle: water", "value": "124 % of control"}]}
{"smiles": "Oc1ccc2cc3ccccc3cc2c1", "values": [{"measurement": "T/C", "setting": "endpoint: mean survival time, dose: 25.0 mg/kg/injection, schedule: Q01DX001 (ip), vehicle: DMSO", "value": "104 % of control"}, {"measurement": "T/C", "setting": "endpoint: mean survival time, dose: 50.0 mg/kg/injection, schedule: Q01DX001 (ip), vehicle: DMSO", "value": "93 % of control"}, {"measurement": "T/C", "setting": "endpoint: mean survival time, dose: 100.0 mg/kg/injection, schedule: Q01DX001 (ip), vehicle: DMSO", "value": "87 % of control and 93 % of control"}]}
{"smiles": "COc1ccc(NC(=O)Nc2ccc(C(C)C)cc2)cc1", "values": [{"measurement": "T/C", "setting": "[4]", "value": "93 % of control"}, {"measurement": "T/C", "setting": "[5]", "value": "91 % of control"}, {"measurement": "T/C", "setting": "endpoint: mean survival time, dose: 400.0 mg/kg/injection, schedule: Q04DX003 (ip), vehicle: saline with Tween-80", "value": "95 % of control"}]}
{"smiles": "CO[C@@]12[C@@H]3N[C@@H]3CN1C1=C(C(=O)C(NCCN)=C(C)C1=O)[C@@H]2COC(N)=O", "values": [{"measurement": "T/C", "setting": "endpoint: median survival time, dose: 0.75 mg/kg/injection, schedule: Q01DX001 (ip), vehicle: water", "value": "123 % of control and 110 % of control"}, {"measurement": "T/C", "setting": "endpoint: median survival time, dose: 1.5 mg/kg/injection, schedule: Q01DX001 (ip), vehicle: water", "value": "111 % of control"}, {"measurement": "T/C", "setting": "endpoint: median survival time, dose: 6.0 mg/kg/injection, schedule: Q01DX001 (ip), vehicle: water", "value": "94 % of control"}]}
{"smiles": "[O]=[Nb]", "values": [{"measurement": "T/C", "setting": "endpoint: mean survival time, dose: 5.0 mg/kg/injection, schedule: Q04DX003 (ip), vehicle: saline", "value": "102 % of control"}, {"measurement": "T/C", "setting": "endpoint: mean survival time, dose: 10.0 mg/kg/injection, schedule: Q04DX003 (ip), vehicle: saline", "value": "98 % of control"}]}
{"smiles": "NNC(=O)NO", "values": [{"measurement": "T/C", "setting": "endpoint: mean survival time, dose: 12.5 mg/kg/injection, schedule: Q01DX009 (ip), vehicle: saline with Tween-80", "value": "166 % of control"}, {"measurement": "T/C", "setting": "[1]", "value": "162 % of control"}, {"measurement": "T/C", "setting": "[2]", "value": "103 % of control"}, {"measurement": "T/C", "setting": "[3]", "value": "97 % of control"}, {"measurement": "T/C", "setting": "[6]", "value": "87 % of control"}]}
{"smiles": "C#CC(OC(C)=O)C1OC(n2cnc3c(Cl)nc(Cl)nc32)C(OC(C)=O)C1OC(C)=O", "note": "(stereo not drawn)", "values": [{"measurement": "T/C", "setting": "endpoint: median survival time, dose: 12.5 mg/kg/injection, schedule: Q01DX005 (ip), vehicle: distilled water + Tween-80", "value": "109 % of control and 103 % of control"}, {"measurement": "T/C", "setting": "endpoint: median survival time, dose: 25.0 mg/kg/injection, schedule: Q01DX005 (ip), vehicle: distilled water + Tween-80", "value": "107 % of control and 100 % of control"}, {"measurement": "T/C", "setting": "endpoint: median survival time, dose: 50.0 mg/kg/injection, schedule: Q01DX005 (ip), vehicle: distilled water + Tween-80", "value": "103 % of control"}, {"measurement": "T/C", "setting": "endpoint: median survival time, dose: 100.0 mg/kg/injection, schedule: Q01DX005 (ip), vehicle: distilled water + Tween-80", "value": "108 % of control and 111 % of control"}, {"measurement": "T/C", "setting": "endpoint: median survival time, dose: 200.0 mg/kg/injection, schedule: Q01DX005 (ip), vehicle: distilled water + Tween-80", "value": "102 % of control and 111 % of control"}]}
{"smiles": "CN(C)C(Cl)(Cl)Nc1ccc(Cl)cc1", "values": [{"measurement": "T/C", "setting": "[3]", "value": "91 % of control"}, {"measurement": "T/C", "setting": "[6]", "value": "107 % of control"}, {"measurement": "T/C", "setting": "endpoint: mean survival time, dose: 400.0 mg/kg/injection, schedule: Q01DX009 (ip), vehicle: saline with Tween-80", "value": "113 % of control"}]}
{"smiles": "COC(=O)C12OCC34C(CC5C(C)C6=CC(=O)OC6=CC5(C)C3C(O)C1O)OC(=O)C(O)C24", "note": "(stereo not drawn)", "values": [{"measurement": "T/C", "setting": "endpoint: median survival time, dose: 0.25 mg/kg/injection, schedule: Q01DX005 (ip), vehicle: Klucel (hydroxypropylcellulose) (HPC)", "value": "112 % of control"}, {"measurement": "T/C", "setting": "endpoint: median survival time, dose: 0.5 mg/kg/injection, schedule: Q01DX005 (ip), vehicle: Klucel (hydroxypropylcellulose) (HPC)", "value": "114 % of control"}]}
